This passage reports IC50 results from patent publication US20250388583A1, “COMPOUNDS AND METHOD FOR PKMYT1 INHIBITION” (Engine Biosciences Pte. Ltd., priority 2022, published 2025).

One assay has as its target PKMYT1 (Homo sapiens (Human), UniProt Q99640). In words: In vitro assay: kinase binding to immobilized ligand, captured kinase measured by qPCR.
The target of the next assay is LCK (Homo sapiens (Human), UniProt P06239). The description is as above. The source says:
Example B-1: In Vitro Assay
Compounds that bind the kinase active site and directly (sterically) or indirectly (allosterically) prevent kinase binding to an immobilized ligand and reduce the amount of kinase captured on the solid support. Screening “hits” were identified by measuring the amount of kinase captured in test versus control samples by using a quantitative, precise and ultra-sensitive qPCR method that detect the associated DNA label. In a similar manner, dissociation constants (Kd's) for test compound-kinase interactions were calculated by measuring the amount of kinase captured on the solid support as a function of the test compound concentration.

Sequence of PKMYT1 (Q99640 whole entry): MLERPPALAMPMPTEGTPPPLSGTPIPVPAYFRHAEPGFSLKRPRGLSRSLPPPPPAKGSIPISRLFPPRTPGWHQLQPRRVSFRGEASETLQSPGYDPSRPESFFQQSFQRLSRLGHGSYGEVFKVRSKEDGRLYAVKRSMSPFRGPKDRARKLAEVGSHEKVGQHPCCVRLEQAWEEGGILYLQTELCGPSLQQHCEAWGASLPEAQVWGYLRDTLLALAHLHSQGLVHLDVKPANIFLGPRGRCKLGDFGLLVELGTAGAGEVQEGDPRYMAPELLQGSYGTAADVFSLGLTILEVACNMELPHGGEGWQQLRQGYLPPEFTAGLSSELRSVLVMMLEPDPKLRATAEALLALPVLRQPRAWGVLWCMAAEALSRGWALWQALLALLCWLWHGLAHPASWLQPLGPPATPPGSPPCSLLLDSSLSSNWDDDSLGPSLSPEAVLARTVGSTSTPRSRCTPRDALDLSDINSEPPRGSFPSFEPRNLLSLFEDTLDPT
Sequence of LCK (P06239 whole entry): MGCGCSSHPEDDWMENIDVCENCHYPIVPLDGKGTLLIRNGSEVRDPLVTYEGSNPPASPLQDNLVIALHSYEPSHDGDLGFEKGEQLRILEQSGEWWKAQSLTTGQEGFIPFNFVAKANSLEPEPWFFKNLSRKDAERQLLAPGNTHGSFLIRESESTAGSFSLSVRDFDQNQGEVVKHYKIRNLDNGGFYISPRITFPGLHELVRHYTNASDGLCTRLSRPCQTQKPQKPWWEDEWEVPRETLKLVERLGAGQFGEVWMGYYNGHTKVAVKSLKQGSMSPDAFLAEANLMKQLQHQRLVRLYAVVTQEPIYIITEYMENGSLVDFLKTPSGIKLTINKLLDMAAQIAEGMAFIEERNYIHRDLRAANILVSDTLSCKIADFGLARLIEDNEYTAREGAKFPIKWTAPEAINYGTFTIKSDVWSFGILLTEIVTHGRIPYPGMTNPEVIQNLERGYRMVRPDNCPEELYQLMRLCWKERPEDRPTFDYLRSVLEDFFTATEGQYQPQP

For `Cc1ncc2c(C(N)=O)c(N)n(-c3c(C)c(O)cc(F)c3C)c2n1` (atropisomer, axis not shown) [Compound 606, 6-amino-7-(3-fluoro-5-hydroxy-2,6-dimethyl-phenyl)-2-methyl-pyrrolo[2,3-d]pyrimidine-5-carboxamide], the IC50 at PKMYT1 and at LCK was under 50 nM each time.

As for `Cc1ncc2c(C(N)=O)c(N)n(-c3c(C)c(O)cc(F)c3C)c2n1` (atropisomer, axis not shown) [Compound 607, 6-amino-7-(3-fluoro-5-hydroxy-2,6-dimethyl-phenyl)-2-methyl-pyrrolo[2,3-d]pyrimidine-5-carboxamide], the IC50 on PKMYT1 and on LCK was over 1000 nM in each case.

Regarding `Cc1c(O)cc(F)c(C)c1-n1c(N)c(C(N)=O)c2cnc(C3CC3)c(F)c21` (atropisomer, axis not shown) [Compound 655], the IC50 at LCK was under 50 nM.

Take `Cc1c(O)cc(F)c(C)c1-n1c(N)c(C(N)=O)c2cnc(C3CC3)nc21` (atropisomer, axis not shown) [Compound 656]: the IC50 on PKMYT1 and at LCK was under 50 nM throughout.

On to `Cc1c(O)cc(F)c(C)c1-n1c(N)c(C(N)=O)c2cc(Cl)cnc21` (single isomer, unassigned) [Compound 576, 2-amino-5-chloro-1-(3-fluoro-5-hydroxy-2,6-dimethylphenyl)-1H-pyrrolo[2,3-b]pyridine-3-carboxamide], for which the IC50 at PKMYT1 and on LCK was 100 to 1000 nM in each case.

The compound `Cc1ncc2c(C(N)=O)c(N)n(-c3c(C)ccc(O)c3C)c2n1` (single isomer, unassigned) [Compound 577, 6-amino-7-(3-hydroxy-2,6-dimethyl-phenyl)-2-methyl-pyrrolo[2,3-d]pyrimidine-5-carboxamide] yielded an IC50 on LCK of under 50 nM.

As for `Cc1ncc2c(C(N)=O)c(N)n(-c3c(C)ccc(O)c3C)c2n1` (single isomer, unassigned) [Compound 578, 6-amino-7-(3-hydroxy-2,6-dimethyl-phenyl)-2-methyl-pyrrolo[2,3-d]pyrimidine-5-carboxamide], at LCK, the IC50 was over 1000 nM.

As to `COc1cnc(C)c(-n2c(N)c(C(N)=O)c3cc(Cl)cnc32)c1C` [Compound 542, 2-amino-5-chloro-1-(5-methoxy-2,4-dimethylpyridin-3-yl)-1H-pyrrolo[2,3-b]pyridine-3-carboxamide], the IC50 is over 1000 nM on PKMYT1 and 100 to 1000 nM on LCK.

As for `Cc1ncc(O)c(C)c1-n1c(N)c(C(N)=O)c2cc(Cl)cnc21` [Compound 543], the IC50 on PKMYT1 is under 50 nM; at LCK, 100 to 1000 nM.

In the case of `Cc1cc2ccoc2c(C)c1-n1c(N)c(C(N)=O)c2cc(Cl)cnc21` [Compound 544, 2-amino-5-chloro-1-(5,7-dimethylbenzofuran-6-yl)-1H-pyrrolo[2,3-b]pyridine-3-carboxamide], the IC50 was over 1000 nM on PKMYT1 and 100 to 1000 nM on LCK.

Take `Cc1ccc(O)c(C)c1-n1c(N)c(C(N)=O)c2cncnc21` [Compound 547, 6-amino-7-(3-hydroxy-2,6-dimethylphenyl)-7H-pyrrolo [2,3-d]pyrimidine-5-carboxamide]: the IC50 on PKMYT1 was under 50 nM; on LCK, 50 to 100 nM.

`Cc1cnc2c(c1)c(C(N)=O)c(N)n2-c1c(C)ccc(O)c1N` [Compound 556, 2-amino-1-(2-amino-3-hydroxy-6-methylphenyl)-5-methyl-1H-pyrrolo[2,3-b]pyridine-3-carboxamide]: the IC50 at PKMYT1 and on LCK was under 50 nM throughout.

Turning to `Cc1ccc(O)c(C)c1-n1c(N)c(C(N)=O)c2cnc(NCCO)nc21` [Compound 559, 6-amino-7-(3-hydroxy-2,6-dimethylphenyl)-2-((2-hydroxyethyl)amino)-7H-pyrrolo[2,3-d]pyrimidine-5-carboxamide], the IC50 on PKMYT1 and on LCK was under 50 nM throughout.

`Cc1cc2c(C(N)=O)c(N)n(-c3c(C)ncc(O)c3C)c2nc1C` [Compound 560, 2-amino-1-(5-hydroxy-2,4-dimethylpyridin-3-yl)-5,6-dimethyl-1H-pyrrolo[2,3-b]pyridine-3-carboxamide] showed an IC50 on LCK of 100 to 1000 nM.

As to `Cc1cnc2c(c1)c(C(N)=O)c(N)n2-c1c(C)ncc(O)c1C` [Compound 561, 2-Amino-1-(5-hydroxy-2,4-dimethyl-3-pyridyl)-5-methyl-pyrrolo[2,3-b]pyridine-3-carboxamide], the results for the IC50 at PKMYT1 and on LCK were 50 to 100 nM and 100 to 1000 nM, respectively.

In the case of `Cc1c(O)cc(F)c(C)c1-n1c(N)c(C(N)=O)c2cc(Cl)cnc21` [Compound 565, 2-amino-5-chloro-1-(3-fluoro-5-hydroxy-2,6-dimethylphenyl)-1H-pyrrolo[2,3-b]pyridine-3-carboxamide], the IC50 on PKMYT1 and at LCK was under 50 nM throughout.

As for `Cc1nc(C)c2c(C(N)=O)c(N)n(-c3c(C)ccc(O)c3C)c2n1` [Compound 566, 6-amino-7-(3-hydroxy-2,6-dimethylphenyl)-2,4-dimethyl-7H-pyrrolo[2,3-d]pyrimidine-5-carboxamide], the IC50 was under 50 nM at PKMYT1 and 100 to 1000 nM at LCK.

For `Cc1ccc(O)c(C)c1-n1c(N)c(C(N)=O)c2cnc(CO)nc21` [Compound 592, 6-amino-7-(3-hydroxy-2,6-dimethylphenyl)-2-(hydroxymethyl)-7H-pyrrolo[2,3-d]pyrimidine-5-carboxamide], the half-maximal inhibitory concentration (IC50) at PKMYT1 lay in the range of 50 to 100 nM; on LCK, 100 to 1000 nM.

On to `Cc1ccc(O)c(C)c1-n1c(N)c(C(N)=O)c2cnc(NC(=O)[C@@H]3CCCN3)nc21` [Compound 593, (S)-6-amino-7-(3-hydroxy-2,6-dimethylphenyl)-2-(pyrrolidine-2-carboxamido)-7H-pyrrolo[2,3-d]pyrimidine-5-carboxamide], for which the IC50 on PKMYT1 is under 50 nM; on LCK, 100 to 1000 nM.

For `Cc1c(O)cc(F)c(C)c1-n1c(N)c(C(N)=O)c2cncc(F)c21` [Compound 599, 2-amino-7-fluoro-1-(3-fluoro-5-hydroxy-2,6-dimethylphenyl)-1H-pyrrolo[3,2-c]pyridine-3-carboxamide], the 50% inhibitory concentration (IC50) at PKMYT1 and on LCK was under 50 nM throughout.

Take `Cc1ccc(O)c(C)c1-n1c(N)c(C(N)=O)c2cnc(-c3ccc(C(C)(C)C)cc3)nc21` [Compound 600, 6-amino-2-(4-(tert-butyl)phenyl)-7-(3-hydroxy-2,6-dimethylphenyl)-7H-pyrrolo[2,3-d]pyrimidine-5-carboxamide]: the IC50 on PKMYT1 and on LCK was 100 to 1000 nM in each case.

On to `Cc1ncc2c(C(N)=O)c(N)n(-c3c(C)cc(F)c(O)c3C)c2n1` [Compound 602, 6-amino-7-(4-fluoro-3-hydroxy-2,6-dimethyl-phenyl)-2-methyl-pyrrolo[2,3-d]pyrimidine-5-carboxamide], for which the results for the IC50 at PKMYT1 and at LCK were under 50 nM and 100 to 1000 nM, respectively.

Regarding `Cc1cc(F)c(O)c(C)c1-n1c(N)c(C(N)=O)c2cc(Cl)cnc21` [Compound 603, 2-amino-5-chloro-1-(4-fluoro-3-hydroxy-2,6-dimethyl-phenyl)pyrrolo[2,3-b]pyridine-3-carboxamide], the concentration for half-maximal inhibition (IC50) at PKMYT1 and at LCK was under 50 nM throughout.

On to `CCc1ncc2c(C(N)=O)c(N)n(-c3c(C)ccc(O)c3C)c2c1F` [Compound 604, 2-amino-6-ethyl-7-fluoro-1-(3-hydroxy-2,6-dimethyl-phenyl)pyrrolo[3,2-c]pyridine-3-carboxamide], for which the IC50 on PKMYT1 and at LCK was under 50 nM throughout.

Regarding `Cc1ccc(O)c(C)c1-n1c(N)c(C(N)=O)c2cnc(C3CC3)c(F)c21` [Compound 605, 2-amino-6-cyclopropyl-7-fluoro-1-(3-hydroxy-2,6-dimethylphenyl)-1H-pyrrolo[3,2-c]pyridine-3-carboxamide], the IC50 at PKMYT1 and at LCK was under 50 nM each time.

Take `Cc1ccc(O)c(C)c1-n1c(N)c(C(N)=O)c2cnc(C#Cc3ccc(F)cc3)c(F)c21` [Compound 622, 2-amino-7-fluoro-6-((4-fluorophenyl)ethynyl)-1-(3-hydroxy-2,6-dimethylphenyl)-1H-pyrrolo[3,2-c]pyridine-3-carboxamide]: the IC50 at PKMYT1 is 50 to 100 nM.

`Cc1c(O)cc(F)c(C)c1-n1c(N)c(C(N)=O)c2cnc(C3CC3)c(F)c21` [Compound 623, 2-amino-6-cyclopropyl-7-fluoro-1-(3-fluoro-5-hydroxy-2,6-dimethyl-phenyl)pyrrolo[3,2-c]pyridine-3-carboxamide] displayed an IC50 at PKMYT1 of under 50 nM.

`Cc1ccc(O)c(C)c1-n1c(N)c(C(N)=O)c2cnc(S(C)(=O)=O)nc21` [Compound 625, 6-amino-7-(3-hydroxy-2,6-dimethylphenyl)-2-(methylsulfonyl)-7H-pyrrolo[2,3-d]pyrimidine-5-carboxamide] registered a 50% inhibitory concentration (IC50) at PKMYT1 of under 50 nM.

For the compound `Cc1ccc(O)c(C)c1-n1c(N)c(C(N)=O)c2cnc(CCc3cscn3)c(F)c21` [Compound 638], the IC50 on PKMYT1 and at LCK was under 50 nM in each case.

As for `Cc1ccc(O)c(C)c1-n1c(N)c(C(N)=O)c2cnc(CCc3cncs3)c(F)c21` [Compound 642], the IC50 at PKMYT1 and on LCK was under 50 nM in each case.

Take `Cc1ccc(O)c(C)c1-n1c(N)c(C(N)=O)c2cnc(C#CC(F)(F)F)nc21` [Compound 648]: the IC50 on PKMYT1 is 50 to 100 nM; at LCK, under 50 nM.

Consider `Cc1ccc(O)c(C)c1-n1c(N)c(C(N)=O)c2cnc(CCc3nccs3)c(F)c21` [Compound 649], for which the IC50 on PKMYT1 and at LCK was under 50 nM throughout.

Consider `Cc1ccc(O)c(C)c1-n1c(N)c(C(N)=O)c2cnc(/C=C/C3CC3)nc21` [Compound 651], for which the IC50 at PKMYT1 and at LCK was under 50 nM throughout.

As for `CCc1c(O)cc(F)c(C)c1-n1c(N)c(C(N)=O)c2cnc(C)nc21` [Compound 659], the IC50 at PKMYT1 and on LCK was under 50 nM throughout.

As to `Cc1ccc(O)c(C)c1-n1c(N)c(C(N)=O)c2cnc(C3CC3)c(C#N)c21` [Compound 662], the IC50 at PKMYT1 and on LCK was under 50 nM in each case.
